Measured values: publication PMC6269892, “Ligand Binding Affinities of Arctigenin and Its Demethylated Metabolites to Estrogen Receptor Alpha” (Molecules, 2013)

Experiments:
[1] = biological target: T1, estrogen receptor alpha (ERalpha) (Homo sapiens, UniProt P03372); experiment: Estrogen-R (α) competitor screening kit, ligand binding screen; settings: for IC50: ER alpha competitor binding, non-linear regression, one site competition; for % Binding to ERα: mean ± S.E.M., n = 4; for RBA (Relative binding affinity): IC50 of estradiol divided by IC50 of the tested compound, multiplied by 100, Estradiol = 100
T1 construct: purchased Wako Chemicals (Osaka, Japan)
T1 sequence (P03372 1-595): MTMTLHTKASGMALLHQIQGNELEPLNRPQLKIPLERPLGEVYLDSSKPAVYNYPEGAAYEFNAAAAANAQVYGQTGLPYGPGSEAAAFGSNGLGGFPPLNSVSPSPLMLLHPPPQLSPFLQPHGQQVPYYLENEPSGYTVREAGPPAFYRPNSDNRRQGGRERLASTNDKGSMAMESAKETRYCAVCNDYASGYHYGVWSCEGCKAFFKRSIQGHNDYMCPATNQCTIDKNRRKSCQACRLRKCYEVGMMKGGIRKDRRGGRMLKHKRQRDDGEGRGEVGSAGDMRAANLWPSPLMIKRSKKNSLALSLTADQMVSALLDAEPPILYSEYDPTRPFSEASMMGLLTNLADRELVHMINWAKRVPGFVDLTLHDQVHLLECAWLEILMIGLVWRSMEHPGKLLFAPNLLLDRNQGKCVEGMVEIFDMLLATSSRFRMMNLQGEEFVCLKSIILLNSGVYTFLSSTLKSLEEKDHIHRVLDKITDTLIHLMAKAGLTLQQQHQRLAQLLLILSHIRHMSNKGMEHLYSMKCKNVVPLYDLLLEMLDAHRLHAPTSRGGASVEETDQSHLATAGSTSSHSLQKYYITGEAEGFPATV
Procedure: An estrogen-R (α) competitor screening kit was purchased from Wako Chemicals (Osaka, Japan). The assay depends on the competition between the samples applied in different concentrations and the labeled estrogen mixture. The amount of the ligand that binds to the ERalpha coated on the microplate well is determined by the dynamic equilibrium among all the ligand concentrations in the mixture, the difference of their binding affinities to the receptor, and the incubation time. Therefore, the reduction in fluorescence intensities from the labeled estrogen retained is an indication of the affinity of the added compounds to the estrogen receptor. (−)-Arctigenin (8) and its metabolites were tested in 10^−5, 10^−4, 5 × 10^−4, and 5 × 10^−3 M concentrations. […] The results were calculated as percentages of the negative control.
Each set of experiments was repeated at least three times. Values are expressed as mean ± S.E.M. One-way analysis of variance followed by Dunnett’s test was used for statistical analysis. The IC50 was calculated using a non-linear regression analysis (for one site competition).

[2] = tested on: MCF-7 human breast cancer cells; parameters: method as in earlier work; settings: estradiol-mediated proliferative characteristics; ref 10 (Xie et al.); cited from earlier work
[3] = compound at 5 × 10^−3 M, percentage of the negative control
[4] = compound at 5 × 10^−4 M, percentage of the negative control
[5] = compound at 10^−4 M, percentage of the negative control
[6] = compound at 10^−5 M, percentage of the negative control (labeled estrogen mixture)

Row | SMILES | IC50 [1] | % Binding to ERα [1, 3] | % Binding to ERα [1, 4] | % Binding to ERα [1, 5] | % Binding to ERα [1, 6] | RBA (Relative binding affinity) [1] | proliferation of MCF-7 human breast cancer cells [2]
1 | COc1cc(C[C@H]2C(=O)OC[C@@H]2Cc2ccc(OC)c(OC)c2)ccc1O [Compound 8, (−)-arctigenin] | > 5000 µM | 19.4 ± 1.5 % | −4.1 ± 3.5% | −4.3 ± 0.8% | −1.4 ± 0.8% | – | –
2 | COc1cc(C[C@H]2C(=O)OC[C@@H]2Cc2ccc(O)c(O)c2)ccc1O [Compound 2, (2R,3R)-2-(4-hydroxy-3-methoxybenzyl)-3-(3,4-dihydroxybenzyl)-butyrolactone] | 790 µM | 67.7 ± 0.2 % | 44.4 ± 0.9 % | 13.5 ± 2.0 % | 1.4 ± 1.2% | 2.5 × 10^−3 | –
3 | COc1ccc(C[C@H]2COC(=O)[C@@H]2Cc2ccc(O)c(O)c2)cc1O [Compound 4] | 2500 µM | 63.2 ± 0.3 % | 19.6 ± 2.3 % | −0.5 ± 0.7% | 1.0 ± 1.4% | 7.9 × 10^−4 | –
4 | COc1ccc(C[C@H]2COC(=O)[C@@H]2Cc2ccc(O)c(O)c2)cc1OC [Compound 6] | 2500 µM | 64.5 ± 0.2 % | 16.6 ± 0.9 % | 1.4 ± 2.4% | −2.3 ± 0.9% | 7.9 × 10^−4 | stimulated the proliferation
5 | O=C1OC[C@H](Cc2ccc(O)c(O)c2)[C@H]1Cc1ccc(O)c(O)c1 [Compound 1, (−)-dihydroxyenterolactone] | 1600 µM | 65.3 ± 0.2 % | 34.8 ± 1.3 % | 13.7 ± 0.7 % | 5.6 ± 3.3 % | 1.2 × 10^−3 | –
6 | COc1cc(C[C@H]2COC(=O)[C@@H]2Cc2ccc(O)c(OC)c2)ccc1O [Compound 5, (−)-matairesinol] | > 5000 µM | 17.6 ± 1.1 % | 0.1 ± 2.6% | 18.1 ± 9.0 % | 0.4 ± 0.9% | – | –
7 | COc1cc(C[C@H]2COC(=O)[C@@H]2Cc2ccc(O)c(O)c2)ccc1O [Compound 3] | 1900 µM | 67.5 ± 0.2 % | 25.8 ± 0.8 % | 14.1 ± 1.3 % | 2.2 ± 1.6% | 1.0 × 10^−3 | –
8 | COc1ccc(C[C@H]2COC(=O)[C@@H]2Cc2ccc(O)c(OC)c2)cc1O [Compound 7] | > 5000 µM | 30.1 ± 1.7 % | −4.2 ± 0.8% | 1.2 ± 1.7% | 3.6 ± 0.6% | – | –
